According to US5185320A, “O^56 -alkyl derivatives of aglycone and pseudo aglycones of teicoplanin” (Gruppo Lepetit S.p.A., priority 1989, dated 1993):

Legend:
Type in all cases: cell-based
Conditions in all cases: inoculum about 10^4 CFU/ml, 18-24 h at 37° C.
[1] = test system: Strep. faecalis ATCC 7080; assay: MIC, standard dilution test, Strep. faecalis ATCC 7080
Experimental: (§1) ISOSENSITEST broth (Oxoid) and TOLLD-HEWITT broth (Difco) are used for growing staphylococci and streptococci, respectively. Broth cultures are diluted so that the final inoculum is about 10^4 colony forming units/ml (CFU/ml).

[2] = test system: Haemophilus influenzae ATCC 19418; assay: MIC, standard dilution test, Haemophilus influenzae ATCC 19418
Experimental: as §1

[3] = test system: Staph. epidermidis ATCC 12228; assay: MIC, standard dilution test, Staph. epidermidis ATCC 12228
Experimental: as §1

Strep. mitis L 796 = assay: MIC, standard dilution test, Strep. mitis L 796
Experimental: as §1

Strep. pyogenes C 203 = assay: MIC, standard dilution test, Strep. pyogenes C 203
Experimental: as §1

Strep. pneumoniae UC41 = assay: MIC, standard dilution test, Strep. pneumoniae UC41
Experimental: as §1

[4] = test system: Neisseria gonorrhoeae ISM68/126; assay: MIC, standard dilution test, Neisseria gonorrhoeae ISM68/126
Experimental: as §1

[5] = test system: Pseudomonas aeruginosa ATCC 10145; assay: MIC, standard dilution test, Pseudomonas aeruginosa ATCC 10145
Experimental: as §1

[6] = test system: Proteus vulgaris ATCC 881; assay: MIC, standard dilution test, Proteus vulgaris ATCC 881
Experimental: as §1

Staph. aureus Tour L 165 = assay: MIC, standard dilution test, Staph. aureus Tour L 165
Experimental: as §1

[7] = test system: Staph. haemolyticus L 602; assay: MIC, standard dilution test, Staph. haemolyticus L 602
Experimental: as §1

[8] = test system: Escherichia coli SKF 12140; assay: MIC, standard dilution test, Escherichia coli SKF 12140
Experimental: as §1

| SMILES | Minimal inhibitory concentration (MIC) [1] | Minimal inhibitory concentration (MIC) [2] | Minimal inhibitory concentration (MIC) [3] | Minimal inhibitory concentration (MIC) (Strep. mitis L 796) | Minimal inhibitory concentration (MIC) (Strep. pyogenes C 203) | Minimal inhibitory concentration (MIC) (Strep. pneumoniae UC41) | Minimal inhibitory concentration (MIC) [4] | Minimal inhibitory concentration (MIC) [5] | Minimal inhibitory concentration (MIC) [6] | Minimal inhibitory concentration (MIC) (Staph. aureus Tour L 165) | Minimal inhibitory concentration (MIC) [7] | Minimal inhibitory concentration (MIC) [8] |
| --- | --- | --- | --- | --- | --- | --- | --- | --- | --- | --- | --- | --- |
| COC(=O)C1NC(=O)C2NC(=O)C(NC(=O)C3NC(=O)C4NC(=O)C(Cc5ccc(c(Cl)c5)Oc5cc3cc(c5OCC3CO3)Oc3ccc(cc3Cl)C2O)NC(=O)C(N)c2ccc(O)c(c2)Oc2cc(O)cc4c2)c2ccc(O)c(c2)-c2c(O)cc(O)cc21.Cl (stereo not shown) [Compound 1, O^56-(2,3-epoxypropyl)deglucoteicoplanin methyl ester] | 0.5 | 64 | 0.063 | 0.25 | 0.063 | 0.125 | 64 | > 128 | 64 | 0.125 | 1 | 32 |
| COC(=O)C1NC(=O)C2NC(=O)C(NC(=O)C3NC(=O)C4NC(=O)C(Cc5ccc(c(Cl)c5)Oc5cc3cc(c5OCCCCN3C(=O)c5ccccc5C3=O)Oc3ccc(cc3Cl)C2O)NC(=O)C(N)c2ccc(O)c(c2)Oc2cc(O)cc4c2)c2ccc(O)c(c2)-c2c(O)cc(O)cc21.Cl (stereo not shown) [Compound 2, O^56-[4(N-phthalimido)butyl]deglucoteicoplanin methyl ester] | 4 | > 128 | 2 | 0.125 | 0.125 | 0.125 | > 128 | > 128 | > 128 | 2 | 4 | > 128 |
| COC(=O)C1NC(=O)C2NC(=O)C(NC(=O)C3NC(=O)C4NC(=O)C(Cc5ccc(c(Cl)c5)Oc5cc3cc(c5OC(CCO)C(=O)O)Oc3ccc(cc3Cl)C2O)NC(=O)C(N)c2ccc(O)c(c2)Oc2cc(O)cc4c2)c2ccc(O)c(c2)-c2c(O)cc(O)cc21.Cl (stereo not shown) [Compound 3, O^56-(1-carboxy-3-hydroxypropyl)deglucoteicoplanin methyl ester hydrochloride] | 0.125 | > 128 | 0.25 | 0.25 | 0.125 | 0.125 | 64 | > 128 | > 128 | 0.5 | 2 | > 128 |
| COC(=O)C1NC(=O)C2NC(=O)C(NC(=O)C3NC(=O)C4NC(=O)C(Cc5ccc(c(Cl)c5)Oc5cc3cc(c5OC(CCO)C(=O)NCCN)Oc3ccc(cc3Cl)C2O)NC(=O)C(N)c2ccc(O)c(c2)Oc2cc(O)cc4c2)c2ccc(O)c(c2)-c2c(O)cc(O)cc21.Cl (stereo not shown) [Compound 4, O^56-[1-[[2-aminoethylamino]carbonyl]3-hydroxypropyl]deglucoteicoplanin methyl ester hydrochloride] | 0.25 | 128 | 0.125 | 0.125 | 0.063 | 0.25 | 64 | 64 | 128 | 0.125 | 0.5 | 16 |
| COC(=O)C1NC(=O)C2NC(=O)C(NC(=O)C3NC(=O)C4NC(=O)C(Cc5ccc(c(Cl)c5)Oc5cc3cc(c5OCCCCN)Oc3ccc(cc3Cl)C2O)NC(=O)C(N)c2ccc(O)c(c2)Oc2cc(O)cc4c2)c2ccc(O)c(c2)-c2c(O)cc(O)cc21 (stereo not shown) [Compound 5, O^56-(4-aminobutyl)deglucoteicoplanin methyl ester] | 0.125 |  | 0.125 | 0.125 | 0.063 | 0.125 |  | 32 | 32 | 0.125 | 0.5 | 8 |
| COC(=O)C1NC(=O)C2NC(=O)C(NC(=O)C3NC(=O)C4NC(=O)C(Cc5ccc(c(Cl)c5)Oc5cc3cc(c5OCCCCN(CCN(C)C)CCN(C)C)Oc3ccc(cc3Cl)C2O)NC(=O)C(N)c2ccc(O)c(c2)Oc2cc(O)cc4c2)c2ccc(O)c(c2)-c2c(O)cc(O)cc21 (stereo not shown) [Compound 6, O^56-[4-[bis[2-(dimethylamino)ethyl]amino]butyl]deglucoteicoplanin methyl ester] | 0.5 |  | 0.25 | 0.125 | 0.032 | 0.25 | 128 | > 128 | > 128 | 0.25 | 0.5 | 16 |
| COC(=O)C1NC(=O)C2NC(=O)C(NC(=O)C3NC(=O)C4NC(=O)C(Cc5ccc(c(Cl)c5)Oc5cc3cc(c5OCCCl)Oc3ccc(cc3Cl)C2O)NC(=O)C(N)c2ccc(O)c(c2)Oc2cc(O)cc4c2)c2ccc(O)c(c2)-c2c(O)cc(O)cc21 (stereo not shown) [Compound 7, O^56-(2-chloroethyl) deglucoteicoplanin methyl ester] | 2 | 64 | 0.5 | 0.25 | 0.125 | 0.125 | > 128 | > 128 | > 128 | 0.125 | 1 | > 128 |
| COC(=O)C1NC(=O)C2NC(=O)C(NC(=O)C3NC(=O)C4NC(=O)C(Cc5ccc(c(Cl)c5)Oc5cc3cc(c5OCCO)Oc3ccc(cc3Cl)C2O)NC(=O)C(N)c2ccc(O)c(c2)Oc2cc(O)cc4c2)c2ccc(O)c(c2)-c2c(O)cc(O)cc21 (stereo not shown) [Compound 8, O^56-(2-hydroxyethyl) deglucoteicoplanin methyl ester] | 0.125 | 64 | 0.125 | 0.125 | 0.063 | 0.125 | 32 | > 128 | > 128 | 0.125 | 2 | 32 |
| CNC(=O)C1NC(=O)C2NC(=O)C(NC(=O)C3NC(=O)C4NC(=O)C(Cc5ccc(c(Cl)c5)Oc5cc3cc(c5OCCCCN)Oc3ccc(cc3Cl)C2O)NC(=O)C(N)c2ccc(O)c(c2)Oc2cc(O)cc4c2)c2ccc(O)c(c2)-c2c(O)cc(O)cc21 (stereo not shown) [Compound 9, O^56-(4-aminobutyl)-deglucoteicoplanin methylamide] | 0.125 | 64 | 0.125 | 0.125 | 0.063 | 0.125 | 64 | 64 | 32 | 0.25 | 0.25 | 8 |
| COC(=O)CNC(=O)CNCCOc1c2cc3cc1Oc1ccc(cc1Cl)C(O)C1NC(=O)C(NC(=O)C3NC(=O)C3NC(=O)C(Cc4ccc(c(Cl)c4)O2)NC(=O)C(N)c2ccc(O)c(c2)Oc2cc(O)cc3c2)c2ccc(O)c(c2)-c2c(O)cc(O)cc2C(C(=O)OCCBr)NC1=O (stereo not shown) [Compound 18, O^56-[2-[2-[(2-methoxy-2-oxoethyl)amino]-2-oxoethylamino]ethyl]deglucoteicoplanin 2-bromoethyl ester] |  |  |  |  | 0.125 |  |  | > 128 | > 128 | 0.13 | 2 | > 128 |
| NC1C(=O)NC2Cc3ccc(c(Cl)c3)Oc3cc4cc(c3OCCO)Oc3ccc(cc3Cl)C(O)C3NC(=O)C(NC(=O)C4NC(=O)C(NC2=O)c2cc(O)cc(c2)Oc2cc1ccc2O)c1ccc(O)c(c1)-c1c(O)cc(O)cc1C(C(=O)OCCO)NC3=O (stereo not shown) [Compound 22, O^56-(2-hydroxyethyl)deglucoteicoplanin 2-hydroxyethyl ester] |  |  |  |  | 0.125 |  |  |  |  | 0.06 | 0.5 | 32 |
